Read-outs that look alike come from different tables or passages of the source. Numbered stars: 1 amine (or outer) side, 2 acyl side, 3 side chain; on linkers, the order of the positions; unused ones are H or OH. Square brackets hold non-standard residues; d marks the D form. Side chains are listed from the residue outwards. Peptide text beside a SMILES is read from it. * marks the point of attachment. C20 diacid = O=C(O)CCCCCCCCCCCCCCCCCCC(=O)*; γGlu = O=C(O)[C@H](CCC(=O)[*:2])N[*:1]; AEEA = NCCOCCOCC(=O)O; Aib = CC(C)(N)C(=O)O
Columns and labels:
[1] = Turbidity of crude library peptides (absorbance at 600 nm); assay type: physicochemical; details: Physical stability of peptides
In short: (§1)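 Values reflect mean ThT emission (ex 450, em 480 nm) over 72 h at 40° C, read every 10 min after 5 min shaking at 700 rpm, plus a single initial absorbance at 600 nm for turbidity. Peptides were at 267 μM, pH 4.0 acetate or pH 7.0 phosphate (50 mM), with 4 μM ThT.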

[2] = Fibril formation of crude library peptides (Thioflavin T); assay type: physicochemical; parameters: key: average ThT fluorescence emission at 480 nm (ex 450 nm), raw units; details: Physical stability of peptides
In short: as §1

GLP1R = GLP1R (Homo sapiens, UniProt P43220); test: hGLP1R potency, cAMP accumulation in CHO-K1 cells stably overexpressing hGLP1R; assay type: cell-based; parameters: host or cells: CHO-K1; details: for EC50: cAMP accumulation; for SCTR EC50/GLP1R EC50 ratio: cAMP accumulation in CHO-K1 cells
GLP1R, sequence (P43220 24-463): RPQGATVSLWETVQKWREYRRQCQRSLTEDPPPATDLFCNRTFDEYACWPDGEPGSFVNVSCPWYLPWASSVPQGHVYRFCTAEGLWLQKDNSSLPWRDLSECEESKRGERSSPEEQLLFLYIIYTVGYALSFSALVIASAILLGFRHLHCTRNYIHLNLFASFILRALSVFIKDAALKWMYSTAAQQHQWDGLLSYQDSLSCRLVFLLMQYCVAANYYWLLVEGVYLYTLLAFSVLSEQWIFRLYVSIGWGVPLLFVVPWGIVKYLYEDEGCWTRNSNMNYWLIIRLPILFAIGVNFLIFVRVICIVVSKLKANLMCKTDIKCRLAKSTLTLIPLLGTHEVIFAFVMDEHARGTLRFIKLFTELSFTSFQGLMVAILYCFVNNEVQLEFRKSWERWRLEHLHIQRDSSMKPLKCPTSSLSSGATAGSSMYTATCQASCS
In short: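 Cells were plated in DPBS with 0.05% casein and 0.5 mM IBMX, then stimulated for 30 min at room temperature with test compound. cAMP was read by TR-FRET after one hour. EC50 came from variable-slope sigmoid nonlinear regression; purified peptides ran as 11-point 3-fold series, n=2.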

SCTR = SCTR (Homo sapiens, UniProt P47872); test: hSCTR potency, cAMP accumulation in CHO-K1 cells stably overexpressing hSCTR; assay type: cell-based; parameters: alternatively Euroscreen ES-712-AF; FAST-0161L; host or cells: CHO-K1; details: cAMP accumulation
SCTR, sequence (P47872 23-440): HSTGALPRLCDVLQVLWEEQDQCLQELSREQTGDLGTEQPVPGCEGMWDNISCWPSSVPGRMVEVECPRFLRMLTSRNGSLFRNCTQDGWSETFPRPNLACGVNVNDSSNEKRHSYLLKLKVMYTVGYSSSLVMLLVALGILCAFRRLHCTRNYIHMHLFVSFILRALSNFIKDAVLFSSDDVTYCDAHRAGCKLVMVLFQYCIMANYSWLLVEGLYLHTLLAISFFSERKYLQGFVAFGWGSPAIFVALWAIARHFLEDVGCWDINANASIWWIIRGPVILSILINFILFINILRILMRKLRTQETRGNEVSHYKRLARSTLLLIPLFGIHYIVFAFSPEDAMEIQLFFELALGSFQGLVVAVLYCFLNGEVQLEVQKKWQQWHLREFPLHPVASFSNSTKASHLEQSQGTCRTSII
In short: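 Division-arrested CHO-K1 cells stably expressing hSCTR were plated in DPBS with 0.05% casein and 0.5 mM IBMX, then stimulated with test peptide for 30 min at room temperature. cAMP was read by HTRF after one hour. EC50 came from variable-slope sigmoidal nonlinear regression.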

[3] = CHO-K1 cells overexpressing hGLP1R, read-out: hGLP1R pEC50 (converted)
[4] = selectivity for hGLP1R over hSCTR
[5] = CHO-K1 cells overexpressing hSCTR, read-out: hSCTR pEC50 (converted)

| Compound | Turbidity (pH 7) [1] | Fibril formation [2] | EC50 (GLP1R; [3]) [nM] | SCTR EC50/GLP1R EC50 ratio (GLP1R; [4]) | EC50 (SCTR; [5]) [nM] | Selectivity (GLP1R; SCTR EC50/GLP1R EC50 ratio) | EC50 (GLP1R; CHO-K1 cells overexpressing hGLP1R, read-out: pEC50 hGLPR1 (converted)) [nM] | EC50 (SCTR; CHO-K1 cells overexpressing hSCTR, read-out: pEC50 hSCTR (converted)) [nM] | EC50 (GLP1R; CHO-K1 cells stably overexpressing hGLP1R, read-out: hGLP1R potency (pEC50) (converted)) [nM] | SCTR EC50/GLP1R EC50 ratio (GLP1R; selectivity ratio, hSCTR vs hGLP1R) | EC50 (SCTR; CHO-K1 cells stably overexpressing hSCTR, read-out: hSCTR potency (pEC50) (converted)) [nM] |
| --- | --- | --- | --- | --- | --- | --- | --- | --- | --- | --- | --- |
| CC(C)C[C@H](NC(=O)[C@H](Cc1ccccc1)NC(=O)[C@H](CCCNC(=N)N)NC(=O)[C@H](CCC(N)=O)NC(=O)[C@H](CC(C)C)NC(=O)C(C)(C)NC(=O)[C@H](C)NC(=O)[C@H](CCC(=O)O)NC(=O)[C@H](CCC(=O)O)NC(=O)[C@H](CCCCNC(=O)COCCOCCNC(=O)COCCOCCNC(=O)CC[C@H](NC(=O)CCCCCCCCCCCCCCCCCCC(=O)O)C(=O)O)NC(=O)[C@H](CC(C)C)NC(=O)[C@H](Cc1ccc(O)cc1)NC(=O)[C@H](CO)NC(=O)[C@@H]1CCCN1C(=O)[C@H](CC(=O)O)NC(=O)[C@H](CO)NC(=O)[C@@H](NC(=O)[C@H](Cc1ccccc1)NC(=O)[C@@H](NC(=O)CNC(=O)[C@H](CCC(=O)O)NC(=O)C(C)(C)NC(=O)[C@@H](N)Cc1c[nH]cn1)[C@@H](C)O)[C@@H](C)O)C(=O)N[C@@H](CCC(=O)O)C(=O)N[C@@H](Cc1c[nH]cn1)C(=O)N[C@@H](CC(C)C)C(=O)N[C@H](C(N)=O)C(C)C [compound 121] (H-H[Aib]EGTFTSDPSYLK([AEEA-AEEA-γGlu-C20 diacid])EEA[Aib]LQRFLEHLV-NH2) | 0.08 | 24767 | 2.51 | 17452 | 39800 |  |  |  |  |  |  |
| CC(C)C[C@H](NC(=O)[C@H](CCC(=O)O)NC(=O)[C@H](CCCCNC(=O)COCCOCCNC(=O)COCCOCCNC(=O)CC[C@H](NC(=O)CCCCCCCCCCCCCCCCCCC(=O)O)C(=O)O)NC(=O)[C@H](CC(C)C)NC(=O)[C@H](CCC(=O)O)NC(=O)[C@H](CO)NC(=O)[C@@H](NC(=O)[C@H](CC(=O)O)NC(=O)[C@H](CO)NC(=O)[C@@H](NC(=O)[C@H](Cc1ccccc1)NC(=O)[C@@H](NC(=O)CNC(=O)[C@H](CCC(=O)O)NC(=O)C(C)(C)NC(=O)[C@@H](N)Cc1c[nH]cn1)[C@@H](C)O)[C@@H](C)O)C(C)C)C(=O)N[C@@H](C)C(=O)N[C@@H](C)C(=O)N[C@@H](CO)C(=O)N[C@@H](CCC(N)=O)C(=O)N[C@@H](CCCNC(=N)N)C(=O)N[C@@H](Cc1ccccc1)C(=O)N[C@@H](CC(C)C)C(=O)N[C@@H](CCC(=O)O)C(=O)N[C@@H](Cc1c[nH]cn1)C(=O)N[C@@H](CC(C)C)C(=O)N[C@H](C(N)=O)C(C)C [compound 12] (H-H[Aib]EGTFTSDVSELK([AEEA-AEEA-γGlu-C20 diacid])ELAASQRFLEHLV-NH2) | 0.09 | 7904 |  |  |  | 33473 | 0.02 | 631 |  |  |  |
| CC[C@H](C)[C@H](NC(=O)[C@H](Cc1ccccc1)NC(=O)[C@H](CCCNC(=N)N)NC(=O)[C@H](CCC(N)=O)NC(=O)[C@H](CC(C)C)NC(=O)[C@H](C)NC(=O)[C@H](C)NC(=O)CNC(=O)[C@H](CCC(=O)O)NC(=O)[C@H](CC(C)C)NC(=O)[C@H](CC(C)C)NC(=O)[C@H](CCC(=O)O)NC(=O)[C@H](CO)NC(=O)[C@H](Cc1c[nH]c2ccccc12)NC(=O)[C@H](CC(=O)O)NC(=O)[C@H](CO)NC(=O)[C@@H](NC(=O)[C@H](Cc1ccccc1)NC(=O)[C@@H](NC(=O)CNC(=O)[C@H](CCC(=O)O)NC(=O)C(C)(C)NC(=O)[C@@H](N)Cc1c[nH]cn1)[C@@H](C)O)[C@@H](C)O)C(=O)N[C@@H](CCC(N)=O)C(=O)N[C@@H](Cc1c[nH]c2ccccc12)C(=O)N[C@@H](CC(C)C)C(=O)N[C@H](C(N)=O)C(C)C [compound 193] (H-H[Aib]EGTFTSDWSELLEGAALQRFIQWLV-NH2) | 0.13 | 26948 |  |  |  |  |  |  | 0.0251 | 558 | 12.6 |
| CC(C)C[C@H](NC(=O)[C@H](Cc1ccccc1)NC(=O)[C@H](CCCNC(=N)N)NC(=O)[C@H](CCC(N)=O)NC(=O)C(C)(C)NC(=O)C(C)(C)NC(=O)[C@H](C)NC(=O)[C@H](CCC(=O)O)NC(=O)[C@H](CCC(=O)O)NC(=O)[C@H](CCCCNC(=O)COCCOCCNC(=O)COCCOCCNC(=O)CC[C@H](NC(=O)CCCCCCCCCCCCCCCCCCC(=O)O)C(=O)O)NC(=O)[C@H](CC(C)C)NC(=O)[C@H](Cc1ccc(O)cc1)NC(=O)[C@H](CO)NC(=O)[C@@H](NC(=O)[C@H](CC(=O)O)NC(=O)[C@H](CO)NC(=O)[C@@H](NC(=O)[C@H](Cc1ccccc1)NC(=O)[C@@H](NC(=O)CNC(=O)[C@H](CCC(=O)O)NC(=O)C(C)(C)NC(=O)[C@@H](N)Cc1c[nH]cn1)[C@@H](C)O)[C@@H](C)O)C(C)C)C(=O)N[C@@H](CCC(=O)O)C(=O)N[C@@H](Cc1c[nH]cn1)C(=O)N[C@@H](CC(C)C)C(=O)N[C@H](C(N)=O)C(C)C [compound 152] (H-H[Aib]EGTFTSDVSYLK([AEEA-AEEA-γGlu-C20 diacid])EEA[Aib][Aib]QRFLEHLV-NH2) | 0.08 | 3105 | 0.0126 | 367578 | 3980 |  |  |  |  |  |  |
| CC[C@H](C)[C@H](NC(=O)[C@H](Cc1ccccc1)NC(=O)[C@H](CCCNC(=N)N)NC(=O)[C@H](CCC(N)=O)NC(=O)[C@H](CC(C)C)NC(=O)[C@H](C)NC(=O)[C@H](C)NC(=O)CNC(=O)[C@H](CCC(=O)O)NC(=O)[C@H](CC(C)C)NC(=O)[C@H](CC(C)C)NC(=O)C(C)(C)NC(=O)[C@H](CO)NC(=O)[C@@H](NC(=O)[C@H](CC(=O)O)NC(=O)[C@H](CO)NC(=O)[C@@H](NC(=O)[C@H](Cc1ccccc1)NC(=O)[C@@H](NC(=O)CNC(=O)[C@H](CCC(=O)O)NC(=O)C(C)(C)NC(=O)[C@@H](N)Cc1c[nH]cn1)[C@@H](C)O)[C@@H](C)O)C(C)C)C(=O)N[C@@H](CCC(N)=O)C(=O)N[C@@H](Cc1c[nH]c2ccccc12)C(=O)N[C@@H](CC(C)C)C(=O)N[C@H](C(N)=O)C(C)C [compound 179] (H-H[Aib]EGTFTSDVS[Aib]LLEGAALQRFIQWLV-NH2) | 0.55 | 22028 | 0.0794 | 5995 | 501 |  |  |  |  |  |  |

Next, values leading:

| Turbidity (pH 7) [1] | Fibril formation [2] | EC50 (GLP1R; [3]) [nM] | SCTR EC50/GLP1R EC50 ratio (GLP1R; [4]) | EC50 (SCTR; [5]) [nM] | Selectivity (GLP1R; SCTR EC50/GLP1R EC50 ratio) | EC50 (GLP1R; CHO-K1 cells overexpressing hGLP1R, read-out: pEC50 hGLPR1 (converted)) [nM] | EC50 (SCTR; CHO-K1 cells overexpressing hSCTR, read-out: pEC50 hSCTR (converted)) [nM] | EC50 (GLP1R; CHO-K1 cells stably overexpressing hGLP1R, read-out: hGLP1R potency (pEC50) (converted)) [nM] | SCTR EC50/GLP1R EC50 ratio (GLP1R; selectivity ratio, hSCTR vs hGLP1R) | EC50 (SCTR; CHO-K1 cells stably overexpressing hSCTR, read-out: hSCTR potency (pEC50) (converted)) [nM] | Compound |
| --- | --- | --- | --- | --- | --- | --- | --- | --- | --- | --- | --- |
| 0.08 | 3751 | 0.0316 | 89023 | 3160 |  |  |  |  |  |  | CC(C)C[C@H](NC(=O)[C@H](Cc1ccccc1)NC(=O)[C@H](CCCNC(=N)N)NC(=O)[C@H](CCC(N)=O)NC(=O)[C@H](CC(C)C)NC(=O)C(C)(C)NC(=O)[C@H](C)NC(=O)[C@H](CCC(=O)O)NC(=O)[C@H](CCC(=O)O)NC(=O)[C@H](Cc1ccccc1)NC(=O)[C@H](CC(C)C)NC(=O)[C@H](Cc1ccc(O)cc1)NC(=O)[C@H](CO)NC(=O)[C@@H](NC(=O)[C@H](CC(=O)O)NC(=O)[C@H](CO)NC(=O)[C@@H](NC(=O)[C@H](Cc1ccccc1)NC(=O)[C@@H](NC(=O)CNC(=O)[C@H](CCC(=O)O)NC(=O)C(C)(C)NC(=O)[C@@H](N)Cc1c[nH]cn1)[C@@H](C)O)[C@@H](C)O)C(C)C)C(=O)N[C@@H](CCC(=O)O)C(=O)N[C@@H](CCCCNC(=O)COCCOCCNC(=O)COCCOCCNC(=O)CC[C@H](NC(=O)CCCCCCCCCCCCCCCCCCC(=O)O)C(=O)O)C(=O)N[C@@H](CC(C)C)C(=O)N[C@H](C(N)=O)C(C)C [compound 176] (H-H[Aib]EGTFTSDVSYLFEEA[Aib]LQRFLEK([AEEA-AEEA-γGlu-C20 diacid])LV-NH2) |
| 0.08 | 4336 | 0.00501 | 12361 | 63.1 |  |  |  |  |  |  | CC(C)C[C@H](NC(=O)[C@H](Cc1ccccc1)NC(=O)[C@H](CCCNC(=N)N)NC(=O)[C@H](CCC(N)=O)NC(=O)[C@H](CC(C)C)NC(=O)C(C)(C)NC(=O)[C@H](C)NC(=O)[C@H](CCC(=O)O)NC(=O)[C@H](CCC(=O)O)NC(=O)[C@H](CCCCNC(=O)COCCOCCNC(=O)COCCOCCNC(=O)CC[C@H](NC(=O)CCCCCCCCCCCCCCCCCCC(=O)O)C(=O)O)NC(=O)[C@H](CC(C)C)NC(=O)[C@H](Cc1ccc(O)cc1)NC(=O)[C@H](CO)NC(=O)[C@@H](NC(=O)[C@H](CC(=O)O)NC(=O)[C@H](CO)NC(=O)[C@@H](NC(=O)[C@H](Cc1ccccc1)NC(=O)[C@@H](NC(=O)CNC(=O)[C@H](CCC(=O)O)NC(=O)C(C)(C)NC(=O)[C@@H](N)Cc1c[nH]cn1)[C@@H](C)O)[C@@H](C)O)C(C)C)C(=O)N[C@@H](CCC(=O)O)C(=O)N[C@@H](CCCCN)C(=O)N[C@@H](CC(C)C)C(=O)N[C@H](C(N)=O)C(C)C [compound 147] (H-H[Aib]EGTFTSDVSYLK([AEEA-AEEA-γGlu-C20 diacid])EEA[Aib]LQRFLEKLV-NH2) |

Reference: patent US20260201008A1, “SECRETIN-DERIVED GLP1R SELECTIVE AGONISTS” (GUBRA A/S, priority 2023, published 2026)
